Measurements: ChEMBL document CHEMBL5226393, “Semisynthesis of 22,25-Epoxylanostane Triterpenoids: Structure Revision and Protective Effects against Oxygen-Glucose Deprivation/Reoxygenation Injury in H9c2 Cells” (2023)
Calls of active or inactive are those of the source. The calls are words filed in the database; no cut-off is given here.

What was measured:
H9c2 [1] = test: Cardioprotective activity against OGD/R-induced cell injury in rat H9c2 cells assessed as increase in cell viability at 20 uM subjected to OGD condition for 6 hrs followed by compound treatment and measured after 6 hrs by MTT assay relative to control; format: functional
H9c2 [2] = test: Cardioprotective activity against OGD/R-induced cell injury in rat H9c2 cells assessed as increase in cell viability at 5 uM subjected to OGD condition for 6 hrs followed by compound treatment and measured after 6 hrs by MTT assay relative to control; format: functional
H9c2 [3] = test: Cardioprotective activity against OGD/R-induced cell injury in rat H9c2 cells assessed as increase in cell viability at 20 uM subjected to OGD condition for 6 hrs followed by compound treatment and measured after 6 hrs by MTT assay; format: functional, cell-based
H9c2 [4] = test: Induction of apoptosis in OGD/R-induced rat H9c2 cells assessed as late apoptotic cells at 10 uM preincubated with compound followed by treatment under OGD condition by Annexin V-FITC staining based flow cytometric analysis (reference value: 4.14%); format: functional
H9c2 [5] = test: Induction of mitochondrial membrane potential loss in OGD/R-induced rat H9c2 cells assessed as increase in red to green fluorescence ratio by JC-1 staining based microscopic analysis relative to control; format: functional
H9c2 [6] = test: Induction of apoptosis in OGD/R-induced rat H9c2 cells assessed as total apoptotic cells at 5 uM preincubated with compound for 24 hrs followed by treatment under OGD condition by Annexin V-FITC staining based flow cytometric analysis relative to control; format: functional
H9c2 [7] = test: Induction of apoptosis in OGD/R-induced rat H9c2 cells assessed as late apoptotic cells at 5 uM preincubated with compound followed by treatment under OGD condition by Annexin V-FITC staining based flow cytometric analysis (reference value: 4.14%); format: functional
H9c2 [8] = test: Induction of apoptosis in OGD/R-induced rat H9c2 cells assessed as early apoptotic cells at 5 uM preincubated with compound followed by treatment under OGD condition by Annexin V-FITC staining based flow cytometric analysis (reference value: 0.97%); format: functional
H9c2 [9] = test: Induction of apoptosis in OGD/R-induced rat H9c2 cells assessed as necrotic cells at 5 uM preincubated with compound followed by treatment under OGD condition by Annexin V-FITC staining based flow cytometric analysis (reference value: 1.01%); format: functional
H9c2 [10] = test: Induction of apoptosis in OGD/R-induced rat H9c2 cells assessed as viable cells at 5 uM preincubated with compound followed by treatment under OGD condition by Annexin V-FITC staining based flow cytometric analysis (reference value: 93.9%); format: functional; settings: read-out: Activity
H9c2 [11] = test: Induction of apoptosis in OGD/R-induced rat H9c2 cells assessed as total apoptotic cells at 10 uM preincubated with compound for 24 hrs followed by treatment under OGD condition by Annexin V-FITC staining based flow cytometric analysis relative to control; format: functional
H9c2 [12] = test: Induction of apoptosis in OGD/R-induced rat H9c2 cells assessed as necrotic cells at 10 uM preincubated with compound followed by treatment under OGD condition by Annexin V-FITC staining based flow cytometric analysis (reference value: 1.01%); format: functional
H9c2 [13] = test: Induction of apoptosis in OGD/R-induced rat H9c2 cells assessed as viable cells at 10 uM preincubated with compound followed by treatment under OGD condition by Annexin V-FITC staining based flow cytometric analysis (reference value: 93.9%); format: functional; settings: read-out: Activity
H9c2 [14] = test: Induction of apoptosis in OGD/R-induced rat H9c2 cells assessed as early apoptotic cells at 10 uM preincubated with compound followed by treatment under OGD condition by Annexin V-FITC staining based flow cytometric analysis (reference value: 0.97%); format: functional
H9c2 [15] = test: Induction of apoptosis in OGD/R-induced rat H9c2 cells assessed as viable cells at 100 uM preincubated with compound followed by treatment under OGD condition by Annexin V-FITC staining based flow cytometric analysis (reference value: 93.9%); format: functional; settings: read-out: Activity
H9c2 [16] = test: Cardioprotective activity against OGD/R-induced cell injury in rat H9c2 cells assessed as increase in cell viability at 100 uM subjected to OGD condition for 6 hrs followed by compound treatment and measured after 6 hrs by MTT assay relative to control; format: functional
H9c2 [17] = test: Induction of apoptosis in OGD/R-induced rat H9c2 cells assessed as total apoptotic cells at 100 uM preincubated with compound for 24 hrs followed by treatment under OGD condition by Annexin V-FITC staining based flow cytometric analysis relative to control; format: functional
H9c2 [18] = test: Induction of apoptosis in OGD/R-induced rat H9c2 cells assessed as early apoptotic cells at 100 uM preincubated with compound followed by treatment under OGD condition by Annexin V-FITC staining based flow cytometric analysis (reference value: 0.97%); format: functional
H9c2 [19] = test: Induction of apoptosis in OGD/R-induced rat H9c2 cells assessed as late apoptotic cells at 100 uM preincubated with compound followed by treatment under OGD condition by Annexin V-FITC staining based flow cytometric analysis (reference value: 4.14%); format: functional
H9c2 [20] = test: Induction of apoptosis in OGD/R-induced rat H9c2 cells assessed as necrotic cells at 100 uM preincubated with compound followed by treatment under OGD condition by Annexin V-FITC staining based flow cytometric analysis (reference value: 1.01%); format: functional

In the case of `C=C(C)[C@@H]1CC=C2C(=CC[C@]3(C)[C@@H]([C@H](C)[C@H]4CCC(C)(C)O4)CC[C@@]23C)[C@@]1(C)CCC(=O)O`, the Activity (H9c2 [1]) is reported as 17.7% and the Activity (H9c2 [2]) is reported as 6.4%.
With `C[C@H]([C@@H]1C[C@@H](O)C(C)(C)O1)[C@H]1CC[C@@]2(C)C3=C(CC[C@]12C)[C@@]1(C)CC[C@H](O)C(C)(C)[C@@H]1CC3` the Activity (H9c2 [3]) was “inactive”.
`C[C@H]([C@@H]1CCC(C)(C)O1)[C@H]1CC[C@@]2(C)C3=CC[C@H]4C(C)(C)[C@@H](O)CC[C@]4(C)C3=CC[C@]12C` gave an Activity (H9c2 [1]) of 10.6%.
For `C[C@@H]([C@H]1CC[C@@]2(C)C3=C(CC[C@]12C)[C@@]1(C)CC[C@H](O)C(C)(C)[C@@H]1CC3)[C@H]1C[C@@H](O)C(C)(C)O1`, the Activity (H9c2 [3]) was “inactive”.
With `C[C@H]([C@@H]1C[C@H](O)C(C)(C)O1)[C@H]1CC[C@@]2(C)C3=C(CC[C@]12C)[C@@]1(C)CC[C@H](O)C(C)(C)[C@@H]1CC3` the Activity (H9c2 [3]) was “inactive”.
`C[C@@H]([C@H]1CC[C@@]2(C)C3=CC[C@H]4C(C)(C)[C@@H](O)CC[C@]4(C)C3=CC[C@]12C)[C@H]1CCC(C)(C)O1` showed an Activity (H9c2 [1]) of 11.4%.
In the case of `C[C@@H]([C@H]1CC[C@@]2(C)C3=CC[C@H]4C(C)(C)[C@@H](O)CC[C@]4(C)C3=CC[C@]12C)[C@H]1C[C@@H](O)C(C)(C)O1`, the Activity (H9c2 [3]) is reported as “inactive”.
With `C[C@@H]([C@H]1CC[C@@]2(C)C3=CC[C@H]4C(C)(C)[C@@H](O)CC[C@]4(C)C3=CC[C@]12C)[C@H]1C[C@H](O)C(C)(C)O1` the Activity (H9c2 [3]) was “inactive”.
`C[C@H]([C@@H]1CCC(C)(C)O1)[C@H]1CC[C@@]2(C)C3=C(CC[C@]12C)[C@@]1(C)CC[C@H](O)C(C)(C)[C@@H]1CC3` was tested, and the Activity (H9c2 [1]) was 10.8%.
With `C[C@@H]([C@H]1CC[C@@]2(C)C3=C(CC[C@]12C)[C@@]1(C)CC[C@H](O)C(C)(C)[C@@H]1CC3)[C@H]1C[C@H](O)C(C)(C)O1` the Activity (H9c2 [3]) was “inactive”.
For `C[C@H]([C@@H]1C[C@H](O)C(C)(C)O1)[C@H]1CC[C@@]2(C)C3=CC[C@H]4C(C)(C)[C@@H](O)CC[C@]4(C)C3=CC[C@]12C`, the Activity (H9c2 [3]) was “inactive”.
In the case of `C[C@H]([C@@H]1C[C@@H](O)C(C)(C)O1)[C@H]1CC[C@@]2(C)C3=CC[C@H]4C(C)(C)[C@@H](O)CC[C@]4(C)C3=CC[C@]12C`, the Activity (H9c2 [3]) is reported as “inactive”.
Work on `C[C@@H]([C@H]1CC[C@@]2(C)C3=C(CC[C@]12C)[C@@]1(C)CC[C@H](O)C(C)(C)[C@@H]1CC3)[C@H]1CCC(C)(C)O1` yielded an Activity (H9c2 [4]) of 8.97%, an Activity (H9c2 [5]) of 90% and an Activity (H9c2 [6]) of 17.4%. For the same compound, the Activity (H9c2 [7]) was 13.3%, the Activity (H9c2 [8]) was 2.55% and the Activity (H9c2 [9]) was 0.52%. For the same compound, the viability at 5 µM (H9c2 [10]) was 83.7%, the Activity (H9c2 [11]) was 14.5% and the Activity (H9c2 [12]) was 0.035%. For the same compound, the viability at 10 µM (H9c2 [13]) was 85.9%, the Activity (H9c2 [1]) was 18.7% and the Activity (H9c2 [14]) was 5.12%. It also gave an Activity (H9c2 [2]) of 11.4%.
For `CC1=Nc2ccc(Cl)cc2S(=O)(=O)N1` [DIAZOXIDE], the viability at 100 µM (H9c2 [15]) was 81.3%, the Activity (H9c2 [16]) was 14.9% and the Activity (H9c2 [17]) was 17.3%. It also gave an Activity (H9c2 [18]) of 5.41%, an Activity (H9c2 [19]) of 12.7% and an Activity (H9c2 [20]) of 0.58%.
